Reference: ChEMBL document CHEMBL4765385, “Synthesis and biological evaluation of β-lapachone-monastrol hybrids as potential anticancer agents” (Eur J Med Chem, 2020)
Values belong to the molecule of their own block, whether it stands above or below them. Activity calls are given as the source filed them. The rule behind the calls is not given here.

What was measured:
A549 [1] = assay: Antiproliferative activity against human A549 cells measured after 48 hrs in presence of NQO1 inhibitor dicoumarol by MTT assay; type: functional, cell-based; conditions: A549, 48 h
L02 = assay: Cytotoxicity against human L02 cells measured after 48 hrs by MTT assay; type: cell-based; conditions: L02, 48 h
A549 [2] = assay: cells; conditions: Homo sapiens, A549, 48 h
NCI-H596 [3] = assay: Antiproliferative activity against human NCI-H596 cells measured after 48 hrs by MTT assay; type: functional, cell-based; conditions: NCI-H596, 48 h
HepG2 [4] = assay: Antiproliferative activity against human HepG2 cells measured after 48 hrs by MTT assay; conditions: HepG2, 48 h
[5] = molecular target: NAD(P)H dehydrogenase [quinone] 1 (Homo sapiens, UniProt P15559); assay: Substrate activity at recombinant human C-terminal His-tagged NQO1 (1 to 274 residues) expressed in Escherichia coli assessed as metabolic rate by measuring NADPH oxidation per micromol protein at 10 mmol/L measured at 5 secs interval for 1 min by UV-Visible Spectrophotometric method; type: ADME
in vitro = conditions: human, L02 cells and A549 cells
HepG2 [6] = assay: Cell cycle arrest in human HepG2 cells assessed as accumulation at G0/G1 phase at 2.4 uM measured after 24 hrs by propidium iodide staining based flow cytometry analysis (reference value: 46.76%); type: functional
HepG2 [7] = assay: Induction of apoptosis in human HepG2 cells assessed as early apoptotic cells at 3.2 uM measured after 24 hrs by Annexin V-FITC/propidium iodide staining based flow cytometry (reference value: 2.65%); type: functional
HepG2 [8] = assay: Induction of reactive oxygen species production in human HepG2 cells at 5 uM measured after 5 hrs by DCFH-DA staining based flow cytometry; type: functional, cell-based
NCI-H596 [9] = assay: Induction of apoptosis in human NCI-H596 cells assessed as necrotic cells at 1.6 uM measured after 24 hrs by Annexin V-FITC/propidium iodide staining based flow cytometry (reference value: 0.64%); type: functional
HepG2 [10] = assay: Induction of apoptosis in human HepG2 cells assessed as early apoptotic cells at 0.8 uM measured after 24 hrs by Annexin V-FITC/propidium iodide staining based flow cytometry (reference value: 2.65%); type: functional
HepG2 [11] = assay: Cell cycle arrest in human HepG2 cells assessed as accumulation at G0/G1 phase at 1.2 uM measured after 24 hrs by propidium iodide staining based flow cytometry analysis (reference value: 46.76%); type: functional
NCI-H596 [12] = assay: Induction of apoptosis in human NCI-H596 cells assessed as viable cells at 1.6 uM measured after 24 hrs by Annexin V-FITC/propidium iodide staining based flow cytometry (reference value: 95.17%); type: functional; conditions: read-out: Activity
HepG2 [13] = assay: Induction of apoptosis in human HepG2 cells assessed as necrotic cells at 1.6 uM measured after 24 hrs by Annexin V-FITC/propidium iodide staining based flow cytometry (reference value: 0.35%); type: functional
HepG2 [14] = assay: Induction of apoptosis in human HepG2 cells assessed as necrotic cells at 3.2 uM measured after 24 hrs by Annexin V-FITC/propidium iodide staining based flow cytometry (reference value: 0.35%); type: functional
HepG2 [15] = assay: Induction of apoptosis in human HepG2 cells assessed as viable cells at 0.8 uM measured after 24 hrs by Annexin V-FITC/propidium iodide staining based flow cytometry (reference value: 94.73%); type: functional; conditions: read-out: Activity
HepG2 [16] = assay: Induction of apoptosis in human HepG2 cells assessed as late apoptotic cells at 3.2 uM measured after 24 hrs by Annexin V-FITC/propidium iodide staining based flow cytometry (reference value: 2.27%); type: functional
HepG2 [17] = assay: Induction of apoptosis in human HepG2 cells assessed as viable cells at 1.6 uM measured after 24 hrs by Annexin V-FITC/propidium iodide staining based flow cytometry (reference value: 94.73%); type: functional; conditions: read-out: Activity
NCI-H596 [18] = assay: Induction of apoptosis in human NCI-H596 cells assessed as late apoptotic cells at 1.6 uM measured after 24 hrs by Annexin V-FITC/propidium iodide staining based flow cytometry (reference value: 1.91%); type: functional
HepG2 [19] = assay: Induction of apoptosis in human HepG2 cells assessed as viable cells at 3.2 uM measured after 24 hrs by Annexin V-FITC/propidium iodide staining based flow cytometry (reference value: 94.73%); type: functional; conditions: read-out: Activity
HepG2 [20] = assay: Induction of apoptosis in human HepG2 cells assessed as late apoptotic cells at 0.8 uM measured after 24 hrs by Annexin V-FITC/propidium iodide staining based flow cytometry (reference value: 2.27%); type: functional
NCI-H596 [21] = assay: Induction of apoptosis in human NCI-H596 cells assessed as early apoptotic cells at 1.6 uM measured after 24 hrs by Annexin V-FITC/propidium iodide staining based flow cytometry (reference value: 2.28%); type: functional
HepG2 [22] = assay: Antitumor activity against human HepG2 cells xenografted in BALB/c athymic nude mouse assessed as tumor growth inhibition at 20 mg/kg, iv administered at 2 days interval 19 days by caliper method relative to control; type: functional; conditions: 456 h, time 19 day, read-out: TGI
NCI-H596 [23] = assay: Induction of reactive oxygen species production in human NCI-H596 cells at 5 uM measured after 5 hrs by DCFH-DA staining based flow cytometry; type: functional, cell-based
HepG2 [24] = assay: Induction of apoptosis in human HepG2 cells assessed as necrotic cells at 0.8 uM measured after 24 hrs by Annexin V-FITC/propidium iodide staining based flow cytometry (reference value: 0.35%); type: functional
HepG2 [25] = assay: Induction of apoptosis in human HepG2 cells assessed as late apoptotic cells at 1.6 uM measured after 24 hrs by Annexin V-FITC/propidium iodide staining based flow cytometry (reference value: 2.27%); type: functional
[26] = Toxicity in human HepG2 cells xenografted BALB/c athymic nude mouse assessed as change in body weight at 20 mg/kg, iv administered at 2 days interval 19 days; type: organism-based; conditions: in vivo, 456 h, time 19 day
HepG2 [27] = assay: Cell cycle arrest in human HepG2 cells assessed as accumulation at G0/G1 phase at 0.6 uM measured after 24 hrs by propidium iodide staining based flow cytometry analysis (reference value: 46.76%); type: functional
HepG2 [28] = assay: Induction of apoptosis in human HepG2 cells assessed as early apoptotic cells at 1.6 uM measured after 24 hrs by Annexin V-FITC/propidium iodide staining based flow cytometry (reference value: 2.65%); type: functional

SMILES: CCOC(=O)C1=C(C)NC(=S)NC1c1cccc(O)c1 (configuration not stated) [MONASTROL]
Drug metabolism [5]: Metabolite_Notdetected

SMILES: O=C1C(=O)c2ccccc2C2=C1C(c1cccc(O)c1)NC(=S)N2 (configuration not stated)
IC50 (A549 [1]): 1710 nM | IC50 (L02): 2880 nM | IC50 (A549 [2]): 370 nM | IC50 (NCI-H596 [3]): 2490 nM | IC50 (HepG2 [4]): 2120 nM | Drug metabolism [5]: 1128 micromol/min/micromol protein | selectivity ratio (in vitro): 7.78

SMILES: COc1cc2c(cc1OC)C1=C(C(=O)C2=O)C(c2cccc(O)c2)NC(=S)N1 (configuration not stated)
IC50 (A549 [1]): 1490 nM | IC50 (L02): 1710 nM | IC50 (A549 [2]): 1770 nM | IC50 (NCI-H596 [3]): 1760 nM | IC50 (HepG2 [4]): 1530 nM | Drug metabolism [5]: 614 micromol/min/micromol protein | selectivity ratio (in vitro): 0.97

SMILES: COc1ccc2c(c1)C(=O)C(=O)C1=C2NC(=S)NC1c1cccc(O)c1 (configuration not stated)
IC50 (A549 [1]): 4550 nM | Activity (HepG2 [6]): 53% | Activity (HepG2 [7]): 12.67% | Activity (HepG2 [8]): Active | Activity (NCI-H596 [9]): 0.14% | Activity (HepG2 [10]): 7.21% | Activity (HepG2 [11]): 49.6% | viability at 1.6 µM (NCI-H596 [12]): 90.8% | IC50 (L02): 21000 nM | Activity (HepG2 [13]): 0.53% | IC50 (A549 [2]): 720 nM | Activity (HepG2 [14]): 0.95% | IC50 (NCI-H596 [3]): 7070 nM | viability at 0.8 µM (HepG2 [15]): 83.7% | Activity (HepG2 [16]): 15.3% | viability at 1.6 µM (HepG2 [17]): 78.1% | Activity (NCI-H596 [18]): 4.81% | viability at 3.2 µM (HepG2 [19]): 71.1% | Activity (HepG2 [20]): 8.52% | Activity (NCI-H596 [21]): 4.22% | inhibition in vivo at 20 mg/kg (HepG2 [22]): 58.1% | Activity (NCI-H596 [23]): Active | Activity (HepG2 [24]): 0.52% | IC50 (HepG2 [4]): 1600 nM | Drug metabolism [5]: 1530 micromol/min/micromol protein | Activity (HepG2 [25]): 11.48% | Activity [26]: Non-Toxic | Activity (HepG2 [27]): 48.54% | selectivity ratio (in vitro): 29.1 | Activity (HepG2 [28]): 9.89%

Further lines, with some results ahead:

IC50 (A549 [1]): 2020 nM | IC50 (A549 [2]): 1940 nM | IC50 (NCI-H596 [3]): 1980 nM | IC50 (HepG2 [4]): 2890 nM | Drug metabolism [5]: 2012 micromol/min/micromol protein
SMILES: O=C1C(=O)c2cccc(Br)c2C2=C1C(c1cccc(O)c1)NC(=S)N2 (configuration not stated)
IC50 (L02): 1660 nM | selectivity ratio (in vitro): 0.86

IC50 (A549 [1]): 1260 nM | IC50 (A549 [2]): 950 nM | IC50 (NCI-H596 [3]): 1560 nM | IC50 (HepG2 [4]): 1380 nM | Drug metabolism [5]: 2398 micromol/min/micromol protein
SMILES: O=C1C(=O)c2ccc(Cl)cc2C2=C1C(c1cccc(O)c1)NC(=S)N2 (configuration not stated)
IC50 (L02): 1680 nM | selectivity ratio (in vitro): 1.77

IC50 (A549 [1]): 1410 nM | IC50 (A549 [2]): 640 nM | IC50 (NCI-H596 [3]): 1810 nM | IC50 (HepG2 [4]): 1580 nM | Drug metabolism [5]: 734 micromol/min/micromol protein
SMILES: O=C1C(=O)c2ccccc2C2=C1C(c1ccc(Cl)c(O)c1)NC(=S)N2 (configuration not stated)
IC50 (L02): 1580 nM | selectivity ratio (in vitro): 2.47

IC50 (A549 [1]): 1190 nM | IC50 (A549 [2]): 300 nM | IC50 (NCI-H596 [3]): 2200 nM | IC50 (HepG2 [4]): 1570 nM | Drug metabolism [5]: 997 micromol/min/micromol protein
SMILES: COc1ccc2c(c1)C1=C(C(=O)C2=O)C(c2cccc(O)c2)NC(=S)N1 (configuration not stated)
IC50 (L02): 1750 nM | selectivity ratio (in vitro): 5.83

IC50 (A549 [1]): 6000 nM | IC50 (A549 [2]): 3320 nM | IC50 (NCI-H596 [3]): 5060 nM | IC50 (HepG2 [4]): 2830 nM
SMILES: CC1(C)CCC2=C(O1)c1ccccc1C(=O)C2=O [LAPACHONE]
Activity (HepG2 [8]): Active | IC50 (L02): 4540 nM | inhibition in vivo at 20 mg/kg (HepG2 [22]): 67.4% | Activity (NCI-H596 [23]): Active | selectivity ratio (in vitro): 1.37
